35 compounds from patent US20100144733A1, “Compounds, compositions and methods comprising heteroaromatic derivatives” (Institute for OneWorld Health, priority 2008, published 2010) can be followed below.

In the first experiment the target is T1, CFTR (Homo sapiens, UniProt P13569).
T1 construct: endogenous in cells; host or cells: T84 human colonic cells (ECACC)
T1 sequence (P13569 whole entry): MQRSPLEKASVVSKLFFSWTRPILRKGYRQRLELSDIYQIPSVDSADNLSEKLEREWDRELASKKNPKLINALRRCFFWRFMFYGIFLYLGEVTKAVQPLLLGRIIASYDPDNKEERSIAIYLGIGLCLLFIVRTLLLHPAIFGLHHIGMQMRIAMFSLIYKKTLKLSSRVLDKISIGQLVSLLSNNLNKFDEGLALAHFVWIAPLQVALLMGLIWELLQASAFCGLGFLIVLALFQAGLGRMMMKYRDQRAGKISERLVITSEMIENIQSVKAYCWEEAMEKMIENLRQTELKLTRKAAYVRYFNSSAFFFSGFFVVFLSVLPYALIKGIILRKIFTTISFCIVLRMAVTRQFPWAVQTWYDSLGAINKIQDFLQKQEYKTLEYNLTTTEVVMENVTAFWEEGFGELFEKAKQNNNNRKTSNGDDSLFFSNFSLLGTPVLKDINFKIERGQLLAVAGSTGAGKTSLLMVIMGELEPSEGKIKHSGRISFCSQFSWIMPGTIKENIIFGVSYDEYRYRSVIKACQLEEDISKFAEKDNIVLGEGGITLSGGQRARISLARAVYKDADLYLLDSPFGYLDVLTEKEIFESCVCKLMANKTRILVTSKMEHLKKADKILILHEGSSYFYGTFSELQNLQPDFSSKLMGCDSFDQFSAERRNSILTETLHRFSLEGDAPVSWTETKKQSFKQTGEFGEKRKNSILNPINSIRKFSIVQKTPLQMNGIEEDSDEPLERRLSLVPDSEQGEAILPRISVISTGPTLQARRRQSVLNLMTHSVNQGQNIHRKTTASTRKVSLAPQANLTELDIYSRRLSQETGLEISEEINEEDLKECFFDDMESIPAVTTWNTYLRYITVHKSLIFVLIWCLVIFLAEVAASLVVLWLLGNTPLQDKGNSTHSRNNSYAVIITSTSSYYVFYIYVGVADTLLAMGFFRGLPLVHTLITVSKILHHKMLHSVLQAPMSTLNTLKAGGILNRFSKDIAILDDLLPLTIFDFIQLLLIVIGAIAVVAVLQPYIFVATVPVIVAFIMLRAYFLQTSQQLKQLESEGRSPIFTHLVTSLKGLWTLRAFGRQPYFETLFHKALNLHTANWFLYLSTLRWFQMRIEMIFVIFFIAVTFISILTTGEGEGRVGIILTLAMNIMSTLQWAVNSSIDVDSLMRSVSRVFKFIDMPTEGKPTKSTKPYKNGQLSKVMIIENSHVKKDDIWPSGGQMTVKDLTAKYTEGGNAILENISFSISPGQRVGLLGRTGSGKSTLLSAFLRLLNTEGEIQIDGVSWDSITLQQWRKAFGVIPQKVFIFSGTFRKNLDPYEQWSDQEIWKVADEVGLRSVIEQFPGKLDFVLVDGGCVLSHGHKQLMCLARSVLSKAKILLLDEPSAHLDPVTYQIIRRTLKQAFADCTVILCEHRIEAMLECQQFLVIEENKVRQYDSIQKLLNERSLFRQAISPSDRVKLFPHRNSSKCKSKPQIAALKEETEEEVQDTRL
Kind of experiment: T84 assay (FLIPR membrane potential dye, forskolin/IBMX-stimulated CFTR channel activity). In kind it is cell-based. To be noted: imidazole and triazole-containing compounds (Tables 13, 14, 14′), read-out: IC50 (μM) (T84 assay). The procedure, abridged: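 Fluorescence from a membrane potential dye in T84 monolayers (HBSS with 10 mM Hepes) is followed each second for 150 s. Cells are exposed to test compound during the 45 min dye loading, then challenged with forskolin (10 μM) and IBMX (100 μM) to open CFTR. Inhibitors suppress the depolarization-driven fluorescence increase.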
Usually IC50 stands for the midpoint of a concentration-inhibition curve. Take `CON(Cc1ccc(C(C)C)cc1)C(=O)c1ncn(-c2cc(Cl)c(O)c(Cl)c2)n1` [128i, 1-(3,5-dichloro-4-hydroxyphenyl)-N-(4-isopropylbenzyl)-N-methoxy-1H-1,2,4-triazole-3-carboxamide]: the IC50 was determined as 2.19 µM. Consider `O=C(c1ncn(-c2cc(Cl)c(O)c(Cl)c2)n1)N(Cc1ccccc1)Cc1cccc(C(F)(F)F)c1` [85i, N-benzyl-1-(3,5-dichloro-4-hydroxyphenyl)-N-(3-(trifluoromethyl)benzyl)-1H-1,2,4-triazole-3-carboxamide], for which the half-inhibitory concentration (IC50) stood at 3.16 µM. In the case of `O=C(c1ccccc1)C1CCN(C(=O)c2ncn(-c3cc(Cl)c(O)c(Cl)c3)n2)CC1` [61i, (4-benzoylpiperidin-1-yl)(1-(3,5-dichloro-4-hydroxyphenyl)-1H-1,2,4-triazol-3-yl)methanone], the IC50 was determined as 26.7 µM.

In the case of `O=C(NCc1cccc(Cl)c1)c1ncn(-c2cc(Cl)c(O)c(Cl)c2)n1` [47i, N-(3-chlorobenzyl)-1-(3,5-dichloro-4-hydroxyphenyl)-1H-1,2,4-triazole-3-carboxamide], the IC50 was found to be 12.6 µM. The same measure, in the same setting: to `O=C(NCc1cc(F)c(F)c(F)c1)c1ncn(-c2cc(Cl)c(O)c(Cl)c2)n1` [43i, 1-(3,5-dichloro-4-hydroxyphenyl)-N-(3,4,5-trifluorobenzyl)-1H-1,2,4-triazole-3-carboxamide] belongs 13.3 µM; to `COCCOCCOCCOCCN(Cc1cccc(OC(F)(F)F)c1)C(=O)c1ncn(-c2cc(Cl)c(O)c(Cl)c2)n1` [115i, 1-(3,5-dichloro-4-hydroxyphenyl)-N-(2,5,8,11-tetraoxatridecan-13-yl)-N-(3-(trifluoromethoxy)benzyl)-1H-1,2,4-triazole-3-carboxamide], 2.8 µM; to `CN(C)c1cccc(CNC(=O)c2ncn(-c3cc(Cl)c(O)c(Cl)c3)n2)c1` [26i, 1-(3,5-dichloro-4-hydroxyphenyl)-N-(3-(dimethylamino)benzyl)-1H-1,2,4-triazole-3-carboxamide], 3.92 µM. For the compound `O=C(NCc1ccccc1Cl)c1ncn(-c2cc(Cl)c(O)c(Cl)c2)n1` [30i, N-(2-chlorobenzyl)-1-(3,5-dichloro-4-hydroxyphenyl)-1H-1,2,4-triazole-3-carboxamide], the IC50 came out at 27.8 µM. As to `CN(Cc1cccc(C(F)(F)F)c1)C(=O)c1ncn(-c2cc(Cl)c(O)c(Cl)c2)n1` [6i, 1-(3,5-dichloro-4-hydroxyphenyl)-N-methyl-N-(3-(trifluoromethyl)benzyl)-1H-1,2,4-triazole-3-carboxamide], the IC50 worked out at 16.2 µM. The same measure, in the same setting: to `O=C(NCc1ccccc1C(F)(F)F)c1ncn(-c2cc(Cl)c(O)c(Cl)c2)n1` [35i, 1-(3,5-dichloro-4-hydroxyphenyl)-N-(2-(trifluoromethyl)benzyl)-1H-1,2,4-triazole-3-carboxamide] belongs 23.8 µM. Take `O=C(NCc1cc(Cl)ccc1F)c1ncn(-c2cc(Cl)c(O)c(Cl)c2)n1` [27i, N-(5-chloro-2-fluorobenzyl)-1-(3,5-dichloro-4-hydroxyphenyl)-1H-1,2,4-triazole-3-carboxamide]: the 50% inhibitory concentration (IC50) amounted to 24.4 µM.

Still in this experiment, the particulars now being: oxadiazole-containing compounds (a series), average of at least 2 runs unless annotated n = 1, read-out: IC50.
`O=C(NCc1cc(Cl)cc(Cl)c1)c1noc(-c2cc(Cl)c(O)c(Cl)c2)n1` [85a, 5-(3,5-dichloro-4-hydroxyphenyl)-N-(3,5-dichlorobenzyl)-1,2,4-oxadiazole-3-carboxamide]: the IC50 is 2.33 µM. Still for that read-out and setting: in the case of `O=C(NCc1ccccc1C(F)(F)F)c1noc(-c2cc(Cl)c(O)c(Cl)c2)n1` [88a, 5-(3,5-dichloro-4-hydroxyphenyl)-N-(2-(trifluoromethyl)benzyl)-1,2,4-oxadiazole-3-carboxamide] it was 6.2 µM; in that of `O=C(NCc1ccc(Oc2ccccc2)cc1)c1nc(-c2cc(Cl)c(O)c(Cl)c2)no1` [7a, 3-(3,5-dichloro-4-hydroxyphenyl)-N-(4-phenoxybenzyl)-1,2,4-oxadiazole-5-carboxamide], 5.22 µM; in that of `CC(C)(C)c1ccc(Oc2ccc(CNC(=O)c3nc(-c4cc(Cl)c(O)c(Cl)c4)no3)cc2)cc1` [192a, N-(4-(4-tert-butylphenoxy)benzyl)-3-(3,5-dichloro-4-hydroxyphenyl)-1,2,4-oxadiazole-5-carboxamide], 17.6 µM.

`O=C(c1nc(-c2cc(Br)c(O)c(Br)c2)no1)N1CCN(c2ccc(Cl)cc2F)CC1` [19a, (4-(4-chloro-2-fluorophenyl)piperazin-1-yl)(3-(3,5-dibromo-4-hydroxyphenyl)-1,2,4-oxadiazol-5-yl)methanone]: the half-inhibitory concentration (IC50) worked out at 7.1 µM. On the same count and under the same terms, to `O=C(c1noc(-c2cc(Cl)c(O)c(Cl)c2)n1)N1CCC(Cc2ccccc2)CC1` [78a, (4-benzylpiperidin-l-yl)(5-(3,5-dichloro-4-hydroxyphenyl)-1,2,4-oxadiazol-3-yl)methanone] belongs 11.2 µM; to `O=C(c1nc(-c2cc(Cl)c(O)c(Cl)c2)no1)N(Cc1cccnc1)Cc1cccc(C(F)(F)F)c1` [89a, 3-(3,5-dichloro-4-hydroxyphenyl)-N-(pyridin-3-ylmethyl)-N-(3-(trifluoromethyl)benzyl)-1,2,4-oxadiazole-5-carboxamide], 2.52 µM. For `CC(C)(C)c1ccc(N2CCN(C(=O)c3nc(-c4cc(Br)c(O)c(Br)c4)no3)CC2)cc1` [25a, (4-(4-tert-butylphenyl)piperazin-1-yl)(3-(3,5-dibromo-4-hydroxyphenyl)-1,2,4-oxadiazol-5-y1)methanone], the concentration for half-maximal inhibition (IC50) came to 10.9 µM. In the case of `O=C(NCc1ccc(Oc2cccc(Cl)c2)cc1)c1nc(-c2cc(Cl)c(O)c(Cl)c2)no1` [179a, N-(4-(3-chlorophenoxy)benzyl)-3-(3,5-dichloro-4-hydroxyphenyl)-1,2,4-oxadiazole-5-carboxamide], the IC50 was 10.7 µM. On to `O=C(NCc1cc(C(F)(F)F)ccc1F)c1nc(-c2cc(Cl)c(O)c(Cl)c2)no1` [126a, 3-(3,5-dichloro-4-hydroxyphenyl)-N-(2-fluoro-5-(trifluoromethyl)benzyl)-1,2,4-oxadiazole-5-carboxamide], for which the half-maximal inhibitory concentration (IC50) was 23.4 µM. Consider `O=C(NCc1cccc(N2CCCCC2)c1)c1noc(-c2cc(Cl)c(O)c(Cl)c2)n1` [157a, 5-(3,5-dichloro-4-hydroxyphenyl)-N-(3-(piperidin-1-yl)benzyl)-1,2,4-oxadiazole-3-carboxamide], for which the 50% inhibitory concentration (IC50) is 3.33 µM. For the compound `O=C(NCc1ccc(Oc2ccc(Cl)c(C(F)(F)F)c2)cc1)c1nc(-c2cc(Cl)c(O)c(Cl)c2)no1` [202a, N-(4-(4-chloro-3-(trifluoromethyl)phenoxy)benzyl)-3-(3,5-dichloro-4-hydroxyphenyl)-1,2,4-oxadiazole-5-carboxamide], the half-maximal inhibitory concentration (IC50) stood at 23.3 µM. On to `O=C(c1nc(-c2cc(Br)c(O)c(Br)c2)no1)N1CCN(c2ccc(Cl)c(C(F)(F)F)c2)CC1` [4a, (4-(4-chloro-3-(trifluoromethyl)phenyl)piperazin-1-yl)(3-(3,5-dibromo-4-hydroxyphenyl)-1,2,4-oxadiazol-5-yl)methanone], for which the 50% inhibitory concentration (IC50) turned out to be 4.72 µM. The same measure, in the same setting: in the case of `C=CCN(Cc1ccc(F)c(F)c1)C(=O)c1nc(-c2cc(Cl)c(O)c(Cl)c2)no1` [170a, N-allyl-3-(3,5-dichloro-4-hydroxyphenyl)-N-(3,4-difluorobenzyl)-1,2,4-oxadiazole-5-carboxamide] it was 3.62 µM. With `O=C(O)COc1c(Cl)cc(-c2nc(C(=O)NCc3ccc(Oc4ccccc4)cc3)no2)cc1Cl` [107a, 2-(2,6-dichloro-4-(3-(4-phenoxybenzylcarbamoyl)-1,2,4-oxadiazol-5-yl)phenoxy)acetic acid], the 50% inhibitory concentration (IC50) worked out at 19.2 µM. For the compound `C#CCN(Cc1cccc(C(F)(F)F)c1)C(=O)c1nc(-c2cc(Cl)c(O)c(Cl)c2)no1` [109a, 3-(3,5-dichloro-4-hydroxyphenyl)-N-(prop-2-ynyl)-N-(3-(trifluoromethyl)benzyl)-1,2,4-oxadiazole-5-carboxamide], the IC50 was 5.31 µM. The same measure, in the same setting: in the case of `CCCN(Cc1cccc(C(F)(F)F)c1)C(=O)c1nc(-c2cc(Cl)c(O)c(Cl)c2)no1` [108a, 3-(3,5-dichloro-4-hydroxyphenyl)-N-propyl-N-(3-(trifluoromethyl)benzyl)-1,2,4-oxadiazole-5-carboxamide] it was 2.79 µM; in that of `CC(C)(C)c1ccc(CNC(=O)c2nc(-c3cc(Cl)c(O)c(Cl)c3)no2)cc1` [136a, N-(4-tert-butylbenzyl)-3-(3,5-dichloro-4-hydroxyphenyl)-1,2,4-oxadiazole-5-carboxamide], 2.95 µM; in that of `O=C(c1nc(-c2cc(Br)c(O)c(Br)c2)no1)N(CCO)Cc1ccccc1` [122a, N-benzyl-3-(3,5-dibromo-4-hydroxyphenyl)-N-(2-hydroxyethyl)-1,2,4-oxadiazole-5-carboxamide], 19.8 µM. Still for that read-out and setting: to `O=C(Nc1ccc(Oc2ccc(C(F)(F)F)cc2)cc1)c1nc(-c2cc(Br)c(O)c(Br)c2)no1` [34a, 3-(3,5-dibromo-4-hydroxyphenyl)-N-(4-(4-(trifluoromethyl)phenoxy)phenyl)-1,2,4-oxadiazole-5-carboxamide] belongs 18.3 µM; to `CC(NC(=O)c1nc(-c2cc(Cl)c(O)c(Cl)c2)no1)c1ccc(Cl)cc1` (centres unmarked) [149a, N-(1-(4-chlorophenyl)ethyl)-3-(3,5-dichloro-4-hydroxyphenyl)-1,2,4-oxadiazole-5-carboxamide], 6.7 µM. In the case of `O=C(NCc1ccc(Cl)cc1)c1nc(-c2cc(Cl)c(O)c(Cl)c2)no1` [128a, N-(4-chlorobenzyl)-3-(3,5-dichloro-4-hydroxyphenyl)-1,2,4-oxadiazole-5-carboxamide], the IC50 stood at 12.8 µM. On the same count and under the same terms, in the case of `O=C(NCc1ccc(Oc2ccc(Br)cc2)cc1)c1nc(-c2cc(Cl)c(O)c(Cl)c2)no1` [182a, N-(4-(4-bromophenoxy)benzyl)-3-(3,5-dichloro-4-hydroxyphenyl)-1,2,4-oxadiazole-5-carboxamide] it was 8.03 µM.

Staying with this experiment, now noted: thiadiazole-containing compounds (Table 12), read-out: IC50.
For `Cc1cc(Cl)ccc1OCc1nnc(-c2cc(Cl)c(O)c(Cl)c2)s1` [4h, 2,6-dichloro-4(5-((4-chloro-2-methylphenoxy)methyl)-1,3,4-thiadiazol-2-yl)phenol], the IC50 is 12.7 µM.
